{"source": "patent US20170009266A1", "about": "“PROCESS FOR THE ATTACHMENT OF A GALNAC MOIETY COMPRISING A (HETERO)ARYL GROUP TO A GLCNAC MOIETY, AND PRODUCT OBTAINED THEREBY” (SYNAFFIX B.V., priority 2014, published 2017)", "key": {"β4Gal-T1": {"molecular_target": "T1, β4Gal-T1 (Bos taurus, UniProt P08037)", "T1 sequence (P08037 1-402)": "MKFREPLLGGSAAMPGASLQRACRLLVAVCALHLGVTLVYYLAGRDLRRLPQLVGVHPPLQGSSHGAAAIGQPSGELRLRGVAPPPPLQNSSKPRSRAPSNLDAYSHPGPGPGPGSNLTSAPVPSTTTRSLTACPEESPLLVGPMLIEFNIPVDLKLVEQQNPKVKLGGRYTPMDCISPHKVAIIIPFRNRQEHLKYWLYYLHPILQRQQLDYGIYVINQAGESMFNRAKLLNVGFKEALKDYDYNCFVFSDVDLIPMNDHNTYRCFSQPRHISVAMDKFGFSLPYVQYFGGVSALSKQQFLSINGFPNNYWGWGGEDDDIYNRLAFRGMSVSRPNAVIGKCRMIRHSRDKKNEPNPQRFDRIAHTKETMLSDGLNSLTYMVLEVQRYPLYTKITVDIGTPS", "conditions": "native enzyme; cited from earlier work"}, "β4Gal-T1(Y289L)": {"molecular_target": "T2, β4Gal-T1(Y289L) (Bos taurus, UniProt P08037, Y289L)", "T2 sequence (P08037 1-402 Y289L)": "T1 sequence (P08037 1-402) with Y289L", "conditions": "GlcNAc acceptor; cited from earlier work"}, "β(1,4)-Gal-T1(Y289L)": {"molecular_target": "T3, β(1,4)-Gal-T1(Y289L) (Bos taurus, UniProt P08037, I205M/L206V/P187L/V158I/Y289L)", "T3 construct": "made in house; host or cells: E. coli", "T3 sequence (P08037 1-402 V158I/P187L/I205M/L206V/Y289L)": "T1 sequence (P08037 1-402) with V158I, P187L, I205M, L206V, Y289L", "experiment": "Glycosyltransfer of UDP-galactosamine derivatives to trimmed trastuzumab with Gal-T1(Y289L) expressed in E. coli, mass spectral analysis", "assay_type": "biochemical, bovine", "conditions": "trimmed trastuzumab 10 mg/mL, pH 8.0, 30° C. overnight, reduced sample", "experimental": "General Protocol for Glycosyltransfer of Galactose Derivative UDP-GalNAz 21-24 with Gal-T1(Y289L) (Expressed in E. coli).\nEnzymatic introduction of UDP-Gal derivatives 21-24 onto deglycosylated trastuzumab was effected with a mutant of bovine β(1,4)-galactosyltransferase [β(1,4)-Gal-T1(Y289L)] (expressed in E. coli). The deglycosylated trastuzumab (10 mg/mL) was incubated with the appropriate UDP-galactose derivative (0.4 mM) and β(1,4)-Gal-T1(Y289L) (1 mg/mL) in 10 mM MnCl2 and 25 mM Tris-HCl pH 8.0 for 16 hours at 30° C.\nNext, the functionalized trastuzumab was incubated with protein A agarose (40 μL per mg IgG) for 2 hours at 4° C. The protein A agarose was washed three times with PBS and the IgG was eluted with 100 mM glycine-HCl pH 2.7. The eluted IgG was neutralized with 1 M Tris-HCl pH 8.0 and concentrated and washed with PBS using an Amicon Ultra-0.5, Ultracel-10 Membrane (Millipore) to a concentration of 15-20 mg/mL.\nTrimmed trastuzumab (10 mg/mL, 3.3 nmol), obtained by Endo S treatment of trastuzumab, was incubated with UDP-galactosamine variant 21 (2.5 mM) and β(1,4)-Gal-T1(Y289L) (0.68 mg/mL, 45 μL) in 10 mM MnCl2 and 25 mM Tris-HCl pH 8.0 at 30° C. overnight.\nTrimmed trastuzumab (10 mg/mL, 1.3 nmol), obtained by Endo S treatment of trastuzumab, was incubated with UDP-galactosamine variant 22 (4 mM) and β(1,4)-Gal-T1(Y289L) (1.4 mg/mL, 10 μL) in 10 mM MnCl2 and 25 mM Tris-HCl pH 8.0 at 30° C. overnight. Mass spectral analysis of the reduced sample indicated the formation of the product (49750.9 Da, approximately 80% of total heavy chain), resulting from galactosamide furan-2-carboxyl acid transfer to core GlcNAc(Fuc) substituted trastuzumab heavy chain as shown in FIG. 9.\nTrimmed trastuzumab (10 mg/mL, 6.6 nmol), obtained by Endo S treatment of trastuzumab, was incubated with the 4-azido-3,5-difluorobenzoyl derivative of UDP-galactosamine (23, 7 mM) and β(1,4)-Gal-T1(Y289L) (2 mg/mL) in 10 mM MnCl2 and 25 mM Tris-HCl pH 8.0 at 30° C. overnight. Mass spectral analysis of the reduced sample indicated the formation of a one major product (49813 Da, approximately 90% of total heavy chain), resulting from transfer of 23 to core GlcNAc(Fuc)-substituted trastuzumab heavy chain.\nTrimmed trastuzumab (10 mg/mL, 1.3 nmol), obtained by Endo S treatment of trastuzumab, was incubated with UDP-galactosamine variant 24 (4 mM) and (3(1,4)-Gal-T1(Y289L) (1.4 mg/mL, 10 μL) in 10 mM MnCl2 and 25 mM Tris-HCl pH 8.0 at 30° C. overnight."}, "Gal-T1(Y289L,C342T)": {"molecular_target": "T4, Gal-T1(Y289L,C342T) (Bos taurus, UniProt P08037, C342T/Y289L)", "T4 construct": "host or cells: CHO K1", "T4 sequence (P08037 74-402 V158I/P187L/I205M/L206V/Y289L/C342T)": "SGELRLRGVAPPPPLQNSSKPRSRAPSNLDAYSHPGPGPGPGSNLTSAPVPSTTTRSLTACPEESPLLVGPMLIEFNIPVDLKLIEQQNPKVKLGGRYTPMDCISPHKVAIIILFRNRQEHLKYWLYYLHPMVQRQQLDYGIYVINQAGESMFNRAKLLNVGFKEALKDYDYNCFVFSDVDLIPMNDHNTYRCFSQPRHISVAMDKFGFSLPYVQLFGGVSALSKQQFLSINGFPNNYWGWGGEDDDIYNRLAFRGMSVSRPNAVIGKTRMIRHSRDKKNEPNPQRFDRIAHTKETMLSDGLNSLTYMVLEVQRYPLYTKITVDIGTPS", "experiment": "Glycosyltransfer to trimmed trastuzumab with Gal-T1(Y289L,C342T) expressed in CHO", "assay_type": "biochemical, bovine", "conditions": "trimmed trastuzumab 10 mg/mL; UDP derivative 1 mM; enzyme 1.0 mg/mL; pH 8.0, 30° C. overnight", "experimental": "(§1) A solution of 20 μg (modified) IgG was incubated for 1 hour at 37° C. with Fabricator™ (commercially available from Genovis, Lund, Sweden) (1.25 U/μL) in phosphate-buffered saline (PBS) pH 6.6 in a total volume of 10 μL. Fabricator™-digested samples were washed trice with milliQ using an Amicon Ultra-0.5, Ultracel-10 Membrane (Millipore) resulting in a final sample volume of approximately 40 μL. The Fc/2 fragment was analyzed by electrospray ionization time-of-flight (ESI-TOF) on a JEOL AccuTOF. Deconvoluted spectra were obtained using Magtran software.\n(§2) A set of Gal-T 1 mutants encoding residues 74-402 of bovine Gal-T 1 were transiently expressed in CHO K1 cells by Evitria (Zurich, Switzerland) which include the Gal-T1 single mutants Y289L (represented by SEQ ID NO: 26), Y289F (represented by SEQ ID NO: 27), Y289M (represented by SEQ ID NO: 28), Y289V (represented by SEQ ID NO: 29), Y289A (represented by SEQ ID NO: 30), and Y289G (represented by SEQ ID NO: 31), and the Gal-T1 double mutants Y289L,C342T (represented by SEQ ID NO: 32), and Y289M,C342T (represented by SEQ ID NO: 33). The mutants were purified using a cation exchange column (Source 15S HR16/10 column, GE Healthcare) as described above. Purified proteins were analyzed by SDS-PAGE. […]"}, "Gal-T1(Y289M,C342T)": {"molecular_target": "T5, Gal-T1(Y289M,C342T) (Bos taurus, UniProt P08037, C342T/Y289M)", "T5 construct": "host or cells: CHO K1", "T5 sequence (P08037 74-402 V158I/P187L/I205M/L206V/Y289M/C342T)": "T4 sequence (P08037 74-402 V158I/P187L/I205M/L206V/Y289L/C342T) with L216M", "experiment": "Glycosyltransfer to trimmed trastuzumab with Gal-T1(Y289M,C342T) expressed in CHO", "assay_type": "biochemical, bovine", "conditions": "trimmed trastuzumab 10 mg/mL; UDP derivative 5 mM; enzyme 1.0 mg/mL; pH 8.0, 30° C. overnight", "experimental": "as §1, §2"}, "[1]": {"conditions": "UDP derivative 4 mM, enzyme 1.4 mg/mL"}}, "note": "Residue numbers refer to the chain shown, from its start."}
{"smiles": "CC(=O)N[C@H]1[C@@H](OP(=O)(O)OP(=O)(O)OC[C@H]2O[C@@H](n3ccc(=O)[nH]c3=O)[C@H](O)[C@@H]2O)O[C@H](CO)[C@H](O)[C@@H]1O", "note": "[UDP-GalNAc]", "values": [{"measurement": "efficiency of GalNAc transfer compared to Gal transfer from UDP-Gal", "setting": "β4Gal-T1", "value": 0.1, "unit": "%"}, {"measurement": "efficiency of GalNAc transfer relative to β4Gal-T1/Gal transfer", "setting": "β4Gal-T1(Y289L)", "value": "~100", "unit": "%"}]}
{"smiles": "O=C(NC1C(OP(=O)(O)OP(=O)(O)OCC2OC(n3ccc(=O)[nH]c3=O)C(O)C2O)OC(CO)C(O)C1O)C1CCCC1", "note": "(stereo not shown) [Compound 24, Cyclopentylcarbonyl Derivative of UDP-GalNH2]", "values": [{"measurement": "product, % of total heavy chain", "setting": "β(1,4)-Gal-T1(Y289L); [1]", "value": "approximately 90%"}]}
{"smiles": "O=C(NC1C(OP(=O)(O)OP(=O)(O)OCC2OC(n3ccc(=O)[nH]c3=O)C(O)C2O)OC(CO)C(O)C1O)c1ccco1", "note": "(stereo not shown) [Compound 22, Furylcarbonyl Derivative of UDP-GalNH2]", "values": [{"measurement": "product, % of total heavy chain", "setting": "β(1,4)-Gal-T1(Y289L); [1]", "value": "approximately 80%"}]}
{"smiles": "[N-]=[N+]=Nc1c(F)c(F)c(C(=O)N[C@H]2[C@@H](OP(=O)(O)OP(=O)(O)OC[C@H]3O[C@@H](n4ccc(=O)[nH]c4=O)[C@H](O)[C@@H]3O)O[C@H](CO)[C@H](O)[C@@H]2O)c(F)c1F", "note": "[Compound 23b, 4-azido-2,3,5,6-tetrafluorobenzoyl Derivative of UDP-GalNH2]", "values": [{"measurement": "conversion into product", "setting": "Gal-T1(Y289L,C342T)", "value": "approximately 70%"}, {"measurement": "conversion into product", "setting": "Gal-T1(Y289M,C342T)", "value": "approximately 10%"}]}
{"smiles": "O=C(NC1C(OP(=O)(O)OP(=O)(O)OCC2OC(n3ccc(=O)[nH]c3=O)C(O)C2O)OC(CO)C(O)C1O)c1cccnc1", "note": "(stereo not shown) [Compound 21, 3-pyridylcarbonyl Derivative of UDP-GalNH2]", "values": [{"measurement": "product, % of total heavy chain", "setting": "β(1,4)-Gal-T1(Y289L); UDP derivative 2.5 mM, enzyme 0.68 mg/mL", "value": "approximately 5%"}]}
